# Results taken from US20240131004A1, “FUNCTIONALIZED 1,3-BENZENE DIOLS AND THEIR METHOD OF USE FOR THE TREATMENT OF INFLAMMATION AND PAIN” (KANNALIFE SCIENCES, INC., priority 2021, published 2024).
# Entries after “also recorded” stand apart in the source; their conditions may differ.
# What was measured:
# human GPR55 = target: T1, human GPR55 (Homo sapiens, UniProt Q9Y2T6); assay: PathHunter β-arrestin assay, human GPR55 in CHO-K1 cell line; type: cell-based; settings: 10 μM LPI
# T1 construct: host or cells: CHO-K1
# Method: In this assay, agonist-induced activation of GPR55 stimulates binding of β-arrestin to the Pro-link-tagged GPCR and forces complementation of two enzyme fragments, resulting in the formation of an active β-galactosidase enzyme. This interaction leads to an increase in enzyme activity that can be measured using chemiluminescent PathHunter detection reagents. For our application, the GPR55 agonist lysophosphatidylinositol (LPI) was tested from 0.1 nM to 30 μM to increase the relative luminescent signal relative to that of control. […] For the GPR55 antagonism assay, KLS-13019 concentrations ranging from 0.1 nM to 30 μM were tested in the presence of 16 μM LPI. Concentrations of KLS-13019 ranging from 0.1 nM to 30 μM were tested alone for possible effects of agonistic activity on β-arrestin.
# A PathHunter β-arrestin assay is shown in FIG. 8 that provides a measure of an antagonist mode assessment of KLS-13019 with a human GPR55 model system (Eurofins). To measure the β-arrestin response to a GPR55 agonist, various concentrations of lysophosphatidylinositol (LPI) were used as shown in the closed circles. […] Based on these findings, 16 μM LPI was incubated with various concentrations of KLS-13019 to test for antagonistic properties (closed inverted triangles). […] All assays were conducted with an N=10.
# interleukin-6 = settings: 1 nM LPIA, after one hour of incubation, DRG neurons
# Excerpt: (§1) Because of the recognized importance of sensory neurons in DRG to transmitting peripheral nociception (Krames, 2014) and the reported accumulation of paclitaxel in DRG from models of CIPN (Duggett et al., 2016), the preparation of choice for the in vitro studies to study protection and anti-inflammation was dissociated cultures from rat DRG. DRG cultures derived from embryonic day 18 rats were employed as the primary assay system to study KLS-13019-properties. In brief, DRG were obtained commercially through Brain Bits (Springfield, IL) and cultures prepared with slight modifications to methods previously described (Brenneman et al., 2019). Tissue was dissociated with a papain-based kit from Worthington Biochemical Corporation (Lakewood, NJ). The DRG cells were plated at low density (10,000 cells/well) in a 96-well format and maintained in serum-free medium consisting of Neurobasal Medium supplemented with B27, GlutaMAX (Gibco) and 25 ng/ml Nerve Growth Factor. Poly-D-lysine coated plates (BD Biosciences, Franklin Lakes, NJ) were employed for this culture system. Prior to the initiation of experiments between days 5 and 9 in vitro, a complete change of medium was performed in a working volume of 100 μL.
# (§2) To assess all antibody-based assays, immunocytochemical methods were employed. The goals for these assays included: 1) to assess the immunoreactive area of our molecular targets (IL-1β, IL-6, GPR55, NLRPA3) with their respective primary antibodies and distinctively labeled secondary antibodies; and 2) to compare the relative responses in both neuronal cell bodies and neurites. Prior to fixation, growth medium was removed and the wells were rinsed one time with 100 μL of DPBS (37° C.). This warm rinse is particularly important to maintain structural stability of neurites. After removal of the DPBS, cultures were fixed for 20 min at room temperature with 50 μL/well of 3.5% formaldehyde (Sigma-Aldrich: 252549) in warm (37° C.) DPBS that contained 5.5 μg/mL of Hoechst 33342 dye (Invitrogen: H3570) to label cell nuclei. After removal of the fixative, the cultures were rinsed twice with 100 μL of DPBS and then a permeabilization/blocking buffer containing 5% normal goat serum and 0.3% triton-X100 in DPBS was added to the cultures for 10 min. After removal of the blocking buffer, the cultures were rinsed twice with 100 μL of DPBS and then primary antibodies were added for one-hour incubation at room temperature. Neurons were identified with antiserum to type III beta tubulin (tuj 1) to measure changes in all neuronal parameters. The primary antiserum employed was rabbit anti-rat obtained from Sigma-Aldrich (T2200) and used at 1:200 dilution. […]
# interleukin-1β = settings: 1 nM LPIA, after one hour of incubation, DRG neurons
# Excerpt: as §1, §2
# GPR55 [1] = settings: DRG neurons
# Excerpt: as §1, §2
# GPR55 [2] = assay: Neuritic GPR55 immunoreactive area in DRG cultures, 6 h co-treatment with LPIA; type: cell-based, rat; settings: 1 nM LPIA, 6 hours, DRG cultures
# Excerpt: as §1
# To assess all antibody-based assays, immunocytochemical methods were employed. The goals for these assays included: 1) to assess the immunoreactive area of our molecular targets (IL-1β, IL-6, GPR55, NLRPA3) with their respective primary antibodies and distinctively labeled secondary antibodies; and 2) to compare the relative responses in both neuronal cell bodies and neurites. Prior to fixation, growth medium was removed and the wells were rinsed one time with 100 μL of DPBS (37° C.). This warm rinse is particularly important to maintain structural stability of neurites. After removal of the DPBS, cultures were fixed for 20 min at room temperature with 50 μL/well of 3.5% formaldehyde (Sigma-Aldrich: 252549) in warm (37° C.) DPBS that contained 5.5 μg/mL of Hoechst 33342 dye (Invitrogen: H3570) to label cell nuclei. […]
# NLRP3 = assay: Neuritic NLRP3 immunoreactive spot area in hippocampal neurons, LPIA reversal paradigm; type: cell-based, rat; settings: 1 nM LPIA, hippocampal cultures
# Excerpt: Tissue was dissociated with a papain-based kit from Worthington Biochemical Corporation (Lakewood, NJ).
# To assess all antibody-based assays, immunocytochemical methods were employed. The goals for these assays included: 1) to assess the immunoreactive area of our molecular targets (IL-1β, IL-6, GPR55, NLRPA3) with their respective primary antibodies and distinctively labeled secondary antibodies; and 2) to compare the relative responses in both neuronal cell bodies and neurites. Prior to fixation, growth medium was removed and the wells were rinsed one time with 100 μL of DPBS (37° C.). This warm rinse is particularly important to maintain structural stability of neurites. After removal of the DPBS, cultures were fixed for 20 min at room temperature with 50 μL/well of 3.5% formaldehyde (Sigma-Aldrich: 252549) in warm (37° C.) DPBS that contained 5.5 μg/mL of Hoechst 33342 dye (Invitrogen: H3570) to label cell nuclei. After removal of the fixative, the cultures were rinsed twice with 100 μL of DPBS and then a permeabilization/blocking buffer containing 5% normal goat serum and 0.3% triton-X100 in DPBS was added to the cultures for 10 min. After removal of the blocking buffer, the cultures were rinsed twice with 100 μL of DPBS and then primary antibodies were added for one-hour incubation at room temperature. Neurons were identified with antiserum to type III beta tubulin (tuj 1) to measure changes in all neuronal parameters. The primary antiserum employed was rabbit anti-rat obtained from Sigma-Aldrich (T2200) and used at 1:200 dilution. The secondary was an Alexa Fluor 488-conjugated Fab fragment of goat anti-rabbit IgG obtained from Life Technologies (A11070) used at 1:600.
# T1 sequence (Q9Y2T6 whole entry): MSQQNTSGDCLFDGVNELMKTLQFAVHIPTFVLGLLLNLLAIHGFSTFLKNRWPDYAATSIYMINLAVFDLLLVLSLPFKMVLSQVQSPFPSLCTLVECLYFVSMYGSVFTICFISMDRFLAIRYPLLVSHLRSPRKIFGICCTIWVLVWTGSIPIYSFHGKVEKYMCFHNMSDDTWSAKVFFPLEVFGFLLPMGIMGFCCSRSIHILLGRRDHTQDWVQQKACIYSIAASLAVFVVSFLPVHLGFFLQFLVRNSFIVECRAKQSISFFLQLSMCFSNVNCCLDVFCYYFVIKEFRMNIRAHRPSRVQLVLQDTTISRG
Substance,Agonist signal in β-arrestin assay (human GPR55),Effect on neuritic IL-6 IR area (interleukin-6),Effect on neuritic IL-1β IR area (interleukin-1β),Concentration producing a maximum effect on GPR55 IR area (GPR55 [1]; preliminary concentration-effect studies),"Effect on GPR55 IR area (GPR55 [1]; LPIA, after one hour of incubation)",Effect of LPIA on neuritic GPR55 area (GPR55 [2]),Effect of LPIA on neuritic NLRP3 spot area (NLRP3)
"lysophosphatidylinositol [LPI, reference compound]",robust and reproducible signal; also recorded: robust agonist signal,–,–,–,–,–,–
lysophosphatidylinositol arachidonate [LPIA],–,significant increases,significant increases,1 nM,increases in GPR55 IR area,produced an increase in neuritic GPR55,increased NLRP3 spot area
